The text below walks through data of ChEMBL document CHEMBL3091437, “Peptide conjugates of 4-aminocyclophosphamide as prodrugs of phosphoramide mustard for selective activation by prostate-specific antigen (PSA)” (Bioorg Med Chem, 2013).

Numbered stars: 1 amine (or outer) side, 2 acyl side, 3 side chain; on linkers, the order of the positions; unused ones are H or OH. Square brackets hold non-standard residues; d marks the D form. Peptide text beside a SMILES is read from it. * marks the point of attachment. Doxorubicin(3'-N) = COc1cccc2c1C(=O)c1c(O)c3c(c(O)c1C2=O)C[C@@](O)(C(=O)CO)C[C@@H]3O[C@H]1C[C@H](N*)[C@H](O)[C@H](C)O1; X1 = O=P1(N(CCCl)CCCl)N[C@@H](N*)CCO1; Glutaryl = O=C(CCCC(=O)[*:2])[*:1]; Hyp = O=C(O)[C@@H]1C[C@@H](O)CN1; Chg = N[C@H](C(=O)O)C1CCCCC1; Suc = O=C(CCC(=O)[*:2])[*:1]

Data set [1] addresses T1, Prostate-specific antigen (Homo sapiens, UniProt P07288).
T1 sequence (P07288 whole entry): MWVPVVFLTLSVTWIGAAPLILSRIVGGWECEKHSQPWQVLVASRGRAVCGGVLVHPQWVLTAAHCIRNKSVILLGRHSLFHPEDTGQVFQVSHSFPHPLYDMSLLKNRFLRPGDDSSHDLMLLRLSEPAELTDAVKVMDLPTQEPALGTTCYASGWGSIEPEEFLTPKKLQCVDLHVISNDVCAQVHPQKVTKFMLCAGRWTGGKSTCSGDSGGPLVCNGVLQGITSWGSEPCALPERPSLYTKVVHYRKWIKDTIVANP
The experiment in a line: Prodrug activation assessed as PSA (unknown origin)-mediated digestion assessed as half life at 1/100 enzyme-compound molar ratio by HPLC analysis.

The target in data set [2] is T2, Prostate-specific antigen (PSA) (Homo sapiens, UniProt P07288).
T2 sequence (P07288 whole entry): T1 sequence (P07288 whole entry)
The experiment in a line: Drug metabolism assessed as PSA (unknown origin)-mediated digestion assessed as compound remaining after 4 hrs by HPLC analysis. Format: ADME. To be noted: PSA (prostate-specific antigen) enzyme, read-out: Drug metabolism.

The target in data set [3] is T1, Prostate-specific antigen. The experiment in a line: Prodrug activation assessed as PSA (unknown origin)-mediated digestion assessed as glutaryl-Hyp-Ala-Ser-Chg-Gln-OH level by LC-MS analysis.
The target in data set [4] is T2, Prostate-specific antigen (PSA). The experiment in a line: Drug metabolism assessed as PSA (unknown origin)-mediated digestion assessed as compound remaining after 50 hrs by HPLC analysis. In kind it is ADME. To be noted: PSA (prostate-specific antigen) enzyme, read-out: Drug metabolism.

Regarding `CC(C)C[C@H](NC(=O)[C@H](CCCCN)NC(=O)[C@H](CO)NC(=O)[C@H](CO)NC(=O)[C@H](Cc1cnc[nH]1)NC(=O)CCC(=O)O)C(=O)N[C@@H](CCC(N)=O)C(=O)N[C@H]1CCOP(=O)(N(CCCl)CCCl)N1` (some centres not stated) (Suc-HSSKLQ-X1), the t1/2 in data set [1] was 6.5 h.

For the molecule `C[C@H](NC(=O)[C@@H]1C[C@@H](O)CN1C(=O)CCCC(=O)O)C(=O)N[C@@H](CO)C(=O)N[C@H](C(=O)N[C@@H](CCC(N)=O)C(=O)N[C@H]1CCOP(=O)(N(CCCl)CCCl)N1)C1CCCCC1` (some centres not stated) (Glutaryl-[Hyp]AS[Chg]Q-X1), the remaining at 4 h in data set [2] is below 10%. In addition, the Drug metabolism result in data set [3] was “Active”. Further, in data set [1], the t1/2 was 0.917 h.

Turning to `CC(C)C[C@H](NC(=O)[C@H](CCCCN)NC(=O)[C@H](CO)NC(=O)CCC(=O)O)C(=O)N[C@@H](CCC(N)=O)C(=O)N[C@H]1CCOP(=O)(N(CCCl)CCCl)N1` (some centres not stated) (Suc-SKLQ-X1), the remaining at 50 h in data set [4] is below 10%. For the same molecule, the t1/2 in data set [1] was determined as 12 h. As to `COc1cccc2c1C(=O)c1c(O)c3c(c(O)c1C2=O)C[C@@](O)(C(=O)CO)C[C@@H]3O[C@H]1C[C@H](NC(=O)[C@H](CC(C)C)NC(=O)[C@H](CO)NC(=O)[C@H](CCC(N)=O)NC(=O)[C@@H](NC(=O)[C@H](CO)NC(=O)[C@H](C)NC(=O)[C@@H]2C[C@@H](O)CN2C(=O)CCCC(=O)O)C2CCCCC2)[C@H](O)[C@H](C)O1` [L-377202] (Glutaryl-[Hyp]AS[Chg]QSL-{Doxorubicin(3'-N)}), in data set [1], the t1/2 was 0.5 h.
